Data from patent US20150218212A1, “FLUORINATED EPOXYKETONE-BASED TETRAPEPTIDE COMPOUNDS AND USES THEREOF AS PROTEASOME INHIBITORS” (FLUORINOV PHARMA INC., priority 2012, published 2015).

Experiments:
OCI-AML-2 = test: Cell viability (MTS) assay, OCI-AML-2; assay type: cell-based; details: Homo sapiens, OCI-AML2; OCI-AML-2, MTS, 72 hours, mean ± standard deviation
Procedure: (§1) Human multiple myeloma cell lines 8226, H929, JJN3, KMH11, KMS11, KMS18, LP1, MM1S, OPM2 and U266 were grown in Iscove modified Dulbecco's medium (IMDM). Human leukemia cell lines K562, OCI-AML2 and U937 were cultured in RPMI-1640 medium. Primary peripheral blood mononuclear cells were isolated from multiple myeloma patients by Ficoll density gradient centrifugation and bone marrow aspirates were obtained from multiple myeloma patients at the Princess Margaret Cancer Centre of the University Health Network (UHN; Toronto, ON, Canada). Primary cells were cultured in IMDM. The collection and use of human tissue for this study was approved by the UHN institutional ethics review board. All cell culture media were obtained from the Ontario Cancer Institute Tissue Culture Media Facility (Toronto, ON, Canada) and were supplemented with 10% fetal calf serum, […] (Hyclone, Logan, Utah). All cells were grown in a humidified incubator at 37° C. with 5% CO2.
Cellular viability was primarily assessed by 3-(4,5-dimethylthiazol-2-yl)-5-(3-carboxymethoxyphenyl)-2-(4-sulfophenyl)-2H-tetrazolium (MTS) assay according to the manufacturer's instructions (Promega; Madison, Wis.). Cells were first seeded at a density of 10,000 cells per well in tissue culture-treated 96-well plates. Two hours after seeding, cells were treated with compounds for 72 hours at concentrations as indicated. As a control, cells were treated with DMSO alone in every assay plate. Following treatment and the MTS assay, cell viability was independently confirmed by reading the optical density (O.D.) at 490 nm and by exclusion of trypan blue stain (Invitrogen; Burlington, ON, Canada). The viability of primary mononuclear cells was determined by staining with Annexin V.
(§2) Table 8 summarizes the data of representative compounds of Formula I for cell viability and CT-L proteasome activity with OCI-AML-2 and KMS-11 cell lines.

[1] = target: T1, chymotrypsin-like (CT-L) proteasome activity (Homo sapiens, UniProt P20618+P28074); test: Proteasome enzymatic activity (tumor cell lysates), CT-L, KMS-11; assay type: biochemical; details: KMS-11, mean ± standard deviation
T1 sequence (P28074 60-263): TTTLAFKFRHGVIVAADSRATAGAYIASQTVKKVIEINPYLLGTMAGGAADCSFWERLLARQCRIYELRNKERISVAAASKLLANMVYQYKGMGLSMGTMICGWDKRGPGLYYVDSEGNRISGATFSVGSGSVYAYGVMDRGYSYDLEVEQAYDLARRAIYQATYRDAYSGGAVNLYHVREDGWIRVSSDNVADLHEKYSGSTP
T1 sequence (P20618 29-241): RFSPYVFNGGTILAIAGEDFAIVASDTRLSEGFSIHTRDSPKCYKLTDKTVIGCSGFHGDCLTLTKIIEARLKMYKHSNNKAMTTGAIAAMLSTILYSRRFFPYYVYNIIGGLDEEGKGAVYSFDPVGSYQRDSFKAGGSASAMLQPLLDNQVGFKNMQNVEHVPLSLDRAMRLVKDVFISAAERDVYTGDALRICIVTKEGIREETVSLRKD
Procedure: as §1
Cells were harvested by centrifugation at 1,200 rpm at room temperature. Cell pellets were washed with PBS (phosphate buffered saline) and lysed with assay lysis buffer (50 mM HEPES (N-2-hydroxyethylpiperazine-N′-2-ethanesulfonic acid), pH 7.5; 150 mM NaCl; 1% Triton X-100; 2 mM ATP). Cell lysates were incubated on ice for 30 minutes, mixed by vortex every 5 minutes, and then centrifuged at 12,000 g for 10 minutes. The supernatant was transferred to a 96-well plate. For each assay, 10 μg of total protein were incubated for 1 hour at 37° C. with increasing concentrations (1 nM to 10 μM) of test compound diluted in assay buffer (50 mM tris-HCl (tris(hydroxymethyl)aminomethane-HCl), pH 7.5; 150 mM NaCl). DMSO alone was used as a control in every assay plate. After incubation, a specific fluorogenic proteasome substrate was added to each assay reaction at a final concentration of 40 μM in a total volume of 100 μL. N-Succinyl-Leu-Leu-Val-Tyr-7-amino-4-methylcoumarin (Suc-Leu-Leu-Val-Tyr-AMC) was used for measuring chymotrypsin-like (CT-L) activity, t-butoxycarbonyl-Leu-Arg-Arg-7-amino-4-methylcoumarin (Boc-Leu-Arg-Arg-AMC) for trypsin-like (T-L) activity, and benzyloxycarbonyl-L-leucyl-L-leucyl-L-glutamyl-7-amino-4-methylcoumarin (Z-Leu-Leu-Glu-AMC) for caspase-like (C-L) activity. The excitation wavelength was set at 360 nm and the fluorescence emission wavelength of AMC was detected at 460 nm. The fluorescence of free AMC released during the enzymatic reaction was measured with a SpectraMax M5 fluorescent spectrophotometric plate reader (Molecular Devices, Sunnyvale, Calif.). AMC release rate was measured at 37° C. in a kinetic mode, recording every 5 minutes for 30 minutes. Experiments were performed in triplicate and repeated at least twice.
as §2

Row | Structure (SMILES) | IC50 (OCI-AML-2) [nM] | IC50 [1] [nM]
1 | CC(C)C[C@H](NC(=O)[C@H](COC(F)F)NC(=O)CN1CCOCC1)C(=O)N[C@@H](COC(F)F)C(=O)N[C@@H](CC(C)C)C(=O)[C@@]1(C)CO1 [Example 1, (2S)—N-[(1S)-1-(difluoromethoxymethyl)-2-[[(1S)-3-methyl-1-[(2R)-2-methyloxirane-2-carbonyl]butyl]amino]-2-oxo-ethyl]-2-[[(2S)-3-(difluoromethoxy)-2-[(2-morpholinoacetyl)amino]propanoyl]amino]-4-methyl-pentanamide] | 24.2 ± 7.2 | 40.4 ± 6.97
2 | CC(C)C[C@H](NC(=O)[C@H](COC(F)F)NC(=O)CN1CCOCC1)C(=O)N[C@@H](Cc1ccccc1)C(=O)N[C@@H](CC(C)C)C(=O)[C@@]1(C)CO1 [Example 2, (2S)-N-[(1S)-1-benzyl-2-[[(1S)-3-methyl-1-[(2R)-2-methyloxirane-2-carbonyl]butyl]-amino]-2-oxo-ethyl]-2-[[(2S)-3-(difluoromethoxy)-2-[(2-morpholinoacetyl)amino]propanoyl]amino]-4-methyl-pentanamide] | 8.41 ± 2.24 | 46.8 ± 1.58
3 | CC(C)C[C@H](NC(=O)[C@H](COC(F)F)NC(=O)CN1CCOCC1)C(=O)N[C@@H](Cc1ccccc1)C(=O)N[C@@H](Cc1ccccc1)C(=O)[C@@]1(C)CO1 [Example 3, (2S)-N-[(1S)-1-benzyl-2-[[(1S)-1-benzyl-2-[(2R)-2-methyloxiran-2-yl]-2-oxo-ethyl]amino]-2-oxo-ethyl]-2-[[(2S)-3-(difluoromethoxy)-2-[(2-morpholinoacetyl)-amino]propanoyl]amino]-4-methyl-pentan-amide] | 16.3 ± 5.96 | 38.2 ± 2.81
4 | CC(C)C[C@H](NC(=O)[C@H](COC(F)F)NC(=O)CN1CCOCC1)C(=O)N[C@@H](COC(F)F)C(=O)N[C@@H](Cc1ccccc1)C(=O)[C@@]1(C)CO1 [Example 4, (2S)-N-[(1S)-2-[[(1S)-1-benzyl-2-[(2R)-2-methyloxiran-2-yl]-2-oxo-ethyl]amino]-1-(difluoromethoxymethyl)-2-oxo-ethyl]-2-[[(2S)-3-(difluoromethoxy)-2-[(2-mor-pholinoacetyl)amino]propanoyl]amino]-4 methyl-pentanamide] | 54.7 ± 10.8 | 45.7 ± 8.26
5 | CC(C)C[C@H](NC(=O)[C@H](COC(F)F)NC(=O)[C@H](COC(F)F)NC(=O)[C@H](CCc1ccccc1)NC(=O)CN1CCOCC1)C(=O)[C@@]1(C)CO1 [Example 7, (2S)-N-[(1S)-1-(difluoromethoxymethyl)-2-[[(1S)-1-(difluoromethoxymethyl)-2-[[(1S)-3-methyl-1-[(2R)-2-methyloxirane-2-carbo-nyl]butyl]amino]-2-oxo-ethyl]amino]-2-oxo-ethyl]-2-[(2-morpholinoacetyl)amino]-4-phenyl-butanamide] | 61.1 ± 10.1 | 33.7 ± 5.6
6 | CC(C)C[C@H](NC(=O)[C@H](Cc1ccccc1)NC(=O)[C@H](COC(F)F)NC(=O)[C@H](COC(F)F)NC(=O)CN1CCOCC1)C(=O)[C@@]1(C)CO1 [Example 11, (2S)-2-[[(2S)-3-(difluoromethoxy)-2-[[(2S)-3-(difluoromethoxy)-2-[(2-morpholinoacetyl)-amino]propanoyl]amino]propanoyl]amino]-N-[(1S)-3-methyl-1-[(2R)-2-methyloxirane-2-carbonyl]butyl]-3-phenyl-propanamide] | 15.7 ± 3.56 | 50.7 ± 7.72
7 | CC(C)C[C@H](NC(=O)[C@H](COC(F)F)NC(=O)[C@H](COC(F)F)NC(=O)[C@H](COC(F)F)NC(=O)CN1CCOCC1)C(=O)[C@@]1(C)CO1 [Example 17, (2S)-3-(difluoromethoxy)-N-[(1S)-1-(difluoromethoxymethyl)-2-[[(1S)-1-(difluoro-methoxymethyl)-2-[[(1S)-3-methyl-1-[(2R)-2-methyloxirane-2-carbonyl]butyl]amino]-2-oxo-ethyl]amino]-2-oxo-ethyl]-2-[(2-mor-pholinoacetyl)amino]-propanamide] | 136 ± 36.8 | 77.8 ± 6.77
